± gives the expanded uncertainty stated by the source.
Experiment: molar heat capacity at constant pressure
Details: 101.33 kPa, Crystal 2, Small (less than 1 g) adiabatic calorimetry

SMILES: O=S(=O)([O-])[O-].[Sr+2] [sulfuric acid, strontium salt (1:1)]
- molar heat capacity at constant pressure (239.54 K): 89.39 ± 0.56 J/K/mol
- molar heat capacity at constant pressure (239.99 K): 89.5 ± 0.56 J/K/mol
- molar heat capacity at constant pressure (240 K): 89.75 ± 0.56 J/K/mol
- molar heat capacity at constant pressure (242.4 K): 90.05 ± 0.56 J/K/mol
- molar heat capacity at constant pressure (242.63 K): 89.95 ± 0.56 J/K/mol
- molar heat capacity at constant pressure (243.09 K): 90.06 ± 0.56 J/K/mol
- molar heat capacity at constant pressure (245.47 K): 90.64 ± 0.56 J/K/mol
- molar heat capacity at constant pressure (245.71 K): 90.56 ± 0.56 J/K/mol
- molar heat capacity at constant pressure (246.17 K): 90.67 ± 0.56 J/K/mol
- molar heat capacity at constant pressure (248.53 K): 91.22 ± 0.57 J/K/mol
- molar heat capacity at constant pressure (248.77 K): 91.15 ± 0.56 J/K/mol
- molar heat capacity at constant pressure (249.24 K): 91.23 ± 0.57 J/K/mol
- molar heat capacity at constant pressure (250 K): 91.7 ± 0.57 J/K/mol
- molar heat capacity at constant pressure (251.58 K): 91.85 ± 0.57 J/K/mol
- molar heat capacity at constant pressure (251.81 K): 91.78 ± 0.57 J/K/mol
- molar heat capacity at constant pressure (252.29 K): 91.85 ± 0.57 J/K/mol
- molar heat capacity at constant pressure (254.61 K): 92.43 ± 0.57 J/K/mol
- molar heat capacity at constant pressure (254.84 K): 92.37 ± 0.57 J/K/mol
- molar heat capacity at constant pressure (255.33 K): 92.47 ± 0.57 J/K/mol
- molar heat capacity at constant pressure (257.63 K): 93 ± 0.57 J/K/mol
- molar heat capacity at constant pressure (257.87 K): 92.94 ± 0.57 J/K/mol
- molar heat capacity at constant pressure (258.36 K): 93.06 ± 0.57 J/K/mol
- molar heat capacity at constant pressure (260 K): 93.66 ± 0.57 J/K/mol
- molar heat capacity at constant pressure (260.65 K): 93.58 ± 0.57 J/K/mol
- molar heat capacity at constant pressure (260.88 K): 93.56 ± 0.57 J/K/mol
- molar heat capacity at constant pressure (261.38 K): 93.65 ± 0.57 J/K/mol
- molar heat capacity at constant pressure (263.66 K): 94.16 ± 0.58 J/K/mol
- molar heat capacity at constant pressure (263.89 K): 94.13 ± 0.58 J/K/mol
- molar heat capacity at constant pressure (264.39 K): 94.26 ± 0.58 J/K/mol
- molar heat capacity at constant pressure (266.66 K): 94.77 ± 0.58 J/K/mol
- molar heat capacity at constant pressure (266.89 K): 94.7 ± 0.58 J/K/mol
- molar heat capacity at constant pressure (267.4 K): 94.85 ± 0.58 J/K/mol
- molar heat capacity at constant pressure (269.66 K): 95.39 ± 0.58 J/K/mol
- molar heat capacity at constant pressure (269.89 K): 95.3 ± 0.58 J/K/mol
- molar heat capacity at constant pressure (270 K): 95.59 ± 0.58 J/K/mol
- molar heat capacity at constant pressure (270.4 K): 95.47 ± 0.58 J/K/mol
- molar heat capacity at constant pressure (272.64 K): 95.96 ± 0.58 J/K/mol
- molar heat capacity at constant pressure (272.87 K): 95.81 ± 0.58 J/K/mol
- molar heat capacity at constant pressure (273.15 K): 96.15 ± 0.58 J/K/mol
- molar heat capacity at constant pressure (273.39 K): 95.92 ± 0.58 J/K/mol
- molar heat capacity at constant pressure (275.63 K): 96.38 ± 0.59 J/K/mol
- molar heat capacity at constant pressure (275.85 K): 96.25 ± 0.58 J/K/mol
- molar heat capacity at constant pressure (276.38 K): 96.39 ± 0.59 J/K/mol
- molar heat capacity at constant pressure (278.61 K): 96.87 ± 0.59 J/K/mol
- molar heat capacity at constant pressure (278.83 K): 96.75 ± 0.59 J/K/mol
- molar heat capacity at constant pressure (279.36 K): 96.87 ± 0.59 J/K/mol
- molar heat capacity at constant pressure (280 K): 97.3 ± 0.59 J/K/mol
- molar heat capacity at constant pressure (281.59 K): 97.38 ± 0.59 J/K/mol
- molar heat capacity at constant pressure (281.8 K): 97.23 ± 0.59 J/K/mol
- molar heat capacity at constant pressure (282.43 K): 97.36 ± 0.59 J/K/mol
- molar heat capacity at constant pressure (284.56 K): 97.83 ± 0.59 J/K/mol
- molar heat capacity at constant pressure (284.76 K): 97.73 ± 0.59 J/K/mol
- molar heat capacity at constant pressure (285.4 K): 97.91 ± 0.59 J/K/mol
- molar heat capacity at constant pressure (287.65 K): 98.39 ± 0.59 J/K/mol
- molar heat capacity at constant pressure (287.81 K): 98.24 ± 0.59 J/K/mol
- molar heat capacity at constant pressure (288.36 K): 98.43 ± 0.59 J/K/mol
- molar heat capacity at constant pressure (290 K): 98.96 ± 0.6 J/K/mol
- molar heat capacity at constant pressure (290.61 K): 98.91 ± 0.6 J/K/mol
- molar heat capacity at constant pressure (290.76 K): 98.75 ± 0.6 J/K/mol
- molar heat capacity at constant pressure (291.32 K): 98.96 ± 0.6 J/K/mol
- molar heat capacity at constant pressure (293.57 K): 99.37 ± 0.6 J/K/mol
- molar heat capacity at constant pressure (293.71 K): 99.22 ± 0.6 J/K/mol
- molar heat capacity at constant pressure (294.28 K): 99.43 ± 0.6 J/K/mol
- molar heat capacity at constant pressure (296.52 K): 99.84 ± 0.6 J/K/mol
- molar heat capacity at constant pressure (296.64 K): 99.69 ± 0.6 J/K/mol
- molar heat capacity at constant pressure (297.22 K): 99.88 ± 0.6 J/K/mol
- molar heat capacity at constant pressure (298.15 K): 100.3 ± 0.6 J/K/mol
- molar heat capacity at constant pressure (299.46 K): 100.34 ± 0.6 J/K/mol
- molar heat capacity at constant pressure (299.56 K): 100.14 ± 0.6 J/K/mol
- molar heat capacity at constant pressure (300 K): 100.59 ± 0.6 J/K/mol
- molar heat capacity at constant pressure (300.17 K): 100.26 ± 0.6 J/K/mol
- molar heat capacity at constant pressure (302.4 K): 100.79 ± 0.6 J/K/mol
- molar heat capacity at constant pressure (302.48 K): 100.58 ± 0.6 J/K/mol
- molar heat capacity at constant pressure (303.1 K): 100.8 ± 0.6 J/K/mol
- molar heat capacity at constant pressure (305.33 K): 101.19 ± 0.6 J/K/mol
- molar heat capacity at constant pressure (305.39 K): 101 ± 0.6 J/K/mol
- molar heat capacity at constant pressure (306.03 K): 101.22 ± 0.6 J/K/mol
- molar heat capacity at constant pressure (308.26 K): 101.58 ± 0.61 J/K/mol
- molar heat capacity at constant pressure (308.3 K): 101.41 ± 0.61 J/K/mol
- molar heat capacity at constant pressure (308.95 K): 101.59 ± 0.61 J/K/mol
- molar heat capacity at constant pressure (310 K): 102.03 ± 0.61 J/K/mol
- molar heat capacity at constant pressure (311.18 K): 102.01 ± 0.61 J/K/mol
- molar heat capacity at constant pressure (311.19 K): 101.81 ± 0.61 J/K/mol
- molar heat capacity at constant pressure (311.87 K): 101.99 ± 0.61 J/K/mol
- molar heat capacity at constant pressure (314.08 K): 102.29 ± 0.61 J/K/mol
- molar heat capacity at constant pressure (314.09 K): 102.44 ± 0.61 J/K/mol
- molar heat capacity at constant pressure (314.78 K): 102.4 ± 0.61 J/K/mol
- molar heat capacity at constant pressure (316.97 K): 102.72 ± 0.61 J/K/mol
- molar heat capacity at constant pressure (316.99 K): 102.82 ± 0.61 J/K/mol
- molar heat capacity at constant pressure (317.69 K): 102.79 ± 0.61 J/K/mol
- molar heat capacity at constant pressure (319.85 K): 103.14 ± 0.61 J/K/mol
- molar heat capacity at constant pressure (319.89 K): 103.15 ± 0.61 J/K/mol
- molar heat capacity at constant pressure (320 K): 103.44 ± 0.61 J/K/mol
- molar heat capacity at constant pressure (320.59 K): 103.18 ± 0.61 J/K/mol
- molar heat capacity at constant pressure (322.73 K): 103.57 ± 0.61 J/K/mol
- molar heat capacity at constant pressure (322.78 K): 103.57 ± 0.61 J/K/mol

From the NIST ThermoML archive (doi:10.1016/j.tca.2013.05.017)
